Reference: ChEMBL document CHEMBL1201862, “PubChem BioAssay data set” (2004)
One block for each molecule: values may come before it. Calls of active or inactive are those of the source.

Experiments:
[1] = target: Luciferin 4-monooxygenase (Photinus pyralis, UniProt P08659); experiment: firefly luciferase enzyme inhibitors, dose response, biochemical, luminescence (AID 1891)
[2] = Luminescence Cell-Based Dose Confirmation HTS to Identify Inhibitors of Platelet Dense Granule Release. [Related pubchem assays: 1663 (Primary HTS), 1678 (Summary of Project)]; assay type: functional
[3] = target: Dual specificity tyrosine-phosphorylation-regulated kinase 1A (Rattus norvegicus, UniProt Q63470); assay type: biochemical, Homo sapiens
[4] = cells; assay type: functional, cell-based
[5] = target: T1, Trace amine-associated receptor 1 (Homo sapiens, UniProt Q96RJ0); experiment: Fluorescence-based cell-based high throughput dose response assay to identify agonists of the human trace amine associated receptor 1 (TAAR1).; assay type: functional
T1 sequence (Q96RJ0 whole entry): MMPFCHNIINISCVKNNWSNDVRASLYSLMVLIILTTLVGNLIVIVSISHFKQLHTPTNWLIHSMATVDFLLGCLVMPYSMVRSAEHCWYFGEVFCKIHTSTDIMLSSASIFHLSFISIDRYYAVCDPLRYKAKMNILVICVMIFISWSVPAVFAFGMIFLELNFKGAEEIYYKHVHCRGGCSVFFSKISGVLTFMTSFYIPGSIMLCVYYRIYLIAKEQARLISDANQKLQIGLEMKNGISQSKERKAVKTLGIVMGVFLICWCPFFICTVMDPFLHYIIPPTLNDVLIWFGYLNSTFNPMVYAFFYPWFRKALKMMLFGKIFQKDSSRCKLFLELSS

[6] = target: T1, Trace amine-associated receptor 1; experiment: Counterscreen for agonists of the human trace amine associated receptor 1 (hTAAR1): Fluorescence-based cell-based high throughput dose response assay to identify hTAAR1 agonist that also desensitize TAAR1 receptor response.; assay type: functional
[7] = cells; assay type: functional, cell-based; remark: listed apart in the source
[8] = HepG2 cell cytotoxicity, dose response, cytotoxicity control, ATP luminescence, cherry-pick, activator set 2 (AID 1053143); assay type: functional, cell-based
[9] = Late stage assay provider results from the probe development effort to identify selective inhibitors of heat shock protein 90 (HSP90): Absorbance-based cell proliferation assay in SKBR3 cells.; assay type: functional; conditions: SK-BR-3
[10] = Late stage assay provider results from the probe development effort to identify selective inhibitors of heat shock protein 90 (HSP90): Absorbance-based cell proliferation assay in MCF7 cells.; assay type: functional
[11] = Late stage assay provider results from the probe development effort to identify inhibitors of the Plasmodium falciparum M17 Leucine Aminopeptidase (M17LAP): radiolabel-based cell-based dose response assay to identify compounds that inhibit P. falciparum growth in RBCs Set 2.; assay type: functional
[12] = NIH/3T3 fibroblast cytotoxicity, dose response, cytotoxicity control, cell-based, plate reader, dry powder, set 2 (AID 652280); assay type: functional; conditions: NIH3T3
[13] = HepG2 cell cytotoxicity, dose response, cytotoxicity control, cherry-picks, set 5 (AID 1053118); assay type: functional, cell-based
[14] = T. cruzi growth inhibition in host cells, dose response, cell-based, plate reader, dry powder, set 2 (AID 652275); assay type: functional
[15] = A375 melanoma cell viability loss, dose response, counter-screen for MITF inhibitor project, CellTiter-Glo luminescence, dry powder, set 4 (AID 624364); assay type: functional, cell-based; conditions: A-375;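 note: A375 melanoma cells are MITF independent so this is a counter screen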
[16] = A375 melanoma cell cytotoxicity, dose response, counter-screen for MITF inhibitor project, CellTiter-Glo luminescence, dry powder, set 2 (AID 624489); assay type: functional, cell-based; conditions: A-375;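 note: actives are compounds lowering A375 viability meaning general cytotoxicity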
[17] = cells; conditions: A549
[18] = HIV Env cell-cell fusion inhibitors, dose response, HIV entry, plate reader, dry powder (AID 687023); assay type: functional, cell-based
[19] = CEM21 cell cytotoxicity, dose response, cytotoxicity control, plate reader, dry powder (AID 687026); assay type: functional, cell-based
[20] = cells; assay type: functional, cell-based; remark: listed apart in the source
[21] = cells; assay type: functional, cell-based; remark: listed apart in the source
[22] = HEK293T cell cytotoxicity, dose response, cytotoxicity control for HIV Vif inhibitor project, cherry-picks (AID 652208); assay type: functional, cell-based
[23] = target: Paired box protein Pax-8 (Homo sapiens, UniProt Q06710); experiment: inhibitors of PAX8-driven TPO luciferase reporter, dose response, RMG-I cells, cherry-pick (AID 687027); assay type: functional, cell-based;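 note: luciferase reporter driven by Pax8 target thyroperoxidase promoter measured by SteadyGlo luminescence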
[24] = cytotoxicity in COV362 ovarian cancer cells, dose response, cytotoxicity control for PAX8 inhibitor project, cell-based, plate reader, dry powder, SA12 (AID 743144); assay type: functional
[25] = IOSE-T80 ovarian epithelial cell cytotoxicity, dose response, cytotoxicity control for PAX8 inhibitor project, plate reader, dry powder samples (AID 743045); assay type: functional, cell-based
[26] = NIH:OVCAR-3 ovarian cancer cell cytotoxicity, dose response, PAX8 inhibitor project, plate reader, dry powder samples (AID 743044); assay type: functional, cell-based
[27] = IGROV1 ovarian cancer cell cytotoxicity, dose response, PAX8 inhibitor project, plate reader, dry powder samples (AID 743043); assay type: functional, cell-based; conditions: IGROV-1
[28] = cytotoxicity in OVCAR4 cells, dose response, cytotoxicity control for PAX8 inhibitor project, cell-based, plate reader, dry powder, SA11 (AID 743150); assay type: functional; conditions: OVCAR-4
[29] = cytotoxicity in COV434 cells, dose response, cytotoxicity control for PAX8 inhibitor project, cell-based, plate reader, dry powder, SA7 (AID 743145); assay type: functional
[30] = cytotoxicity in OV-90 ovarian cancer cells, dose response, PAX8 inhibitor project, cell-based, plate reader, dry powder, SA8 (AID 743149); assay type: functional
[31] = non-specific cell cytotoxicity, dose response, cytotoxicity control for PAX8 inhibitor project, plate reader, dry powder samples (AID 743021); assay type: functional, cell-based
[32] = cytotoxicity dependent on PAX8, dose response, cell-based, plate reader, dry powder (AID 743049); assay type: functional
[33] = test system: Jurkat; experiment: antigen receptor-induced NF-kB inhibitors, dose response, Jurkat, luciferase reporter, luminescence, B- and T-cell (AID 489004); assay type: functional, cell-based; conditions: Homo sapiens;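 note: NF-kB luciferase reporter Jurkat cells stimulated with PMA plus ionomycin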
[34] = cytotoxicity in HEK-293T NF-kB-Luc cells, dose response, cytotoxicity control for B/T-cell NF-kB inhibitor project, cell-based, uHTS hits (AID 489019); assay type: functional;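 note: IC50 reflects cytotoxicity as loss of cell viability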
[35] = inhibitors of HIV Env-driven cell fusion, dose response, cherry-pick (AID 652057); assay type: functional, cell-based
[36] = target: Galanin receptor type 3 (Homo sapiens, UniProt O60755); experiment: Fluorescence-based cell-based primary high throughput dose response assay to identify antagonists of the Galanin Receptor 3 (GalR3).; assay type: functional
[37] = cells; assay type: functional, cell-based; conditions: HEK-CNG
[38] = ZM109 Env clade C HIV-1 fusion inhibitors, dose response, HeLa effector, CEM target cells, luciferase, cherry-pick (AID 652058); assay type: functional, cell-based
[39] = off-target signal loss in HeLa-CEM21 co-culture – HeLa F-luc CTL cells, cherry-picked, counter-screen for HIV-1 Env fusion inhibitor project, dose response (AID 652040); assay type: functional, cell-based;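 note: potency for signal decrease marking cytotoxic or nonspecific inhibition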
[40] = inhibitors of clade B AD8 Env fusion, dose response, cell-based, cherry-pick (AID 652062); assay type: functional;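 note: luciferase signal from cell-cell fusion driven by HIV-1 clade B AD8 Env; potency is for inhibitors of fusion seen as a drop in luminescence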
[41] = target: Kallikrein-7 (Homo sapiens, UniProt P49862); experiment: Fluorescence Intensity-based biochemical primary high throughput dose response assay to identify activators of kallikrein-7 (K7) zymogen.
[42] = EDANS-DABCYL fluorescence interference, concentration series, dose response, artefact control for kallikrein-7 zymogen activator project, biochemical, fluorescence intensity, triplicate (AID 720493)
[43] = test system: HeLa; experiment: HeLa cell cytotoxicity, dose response, cytotoxicity control, ATP luminescence, cherry-pick samples (AID 687004); assay type: functional, cell-based; conditions: Homo sapiens
[44] = test system: HEK293; experiment: HEK293T cell cytotoxicity, dose response, cytotoxicity control, ATP luminescence, cherry-pick samples (AID 687005); assay type: functional, cell-based; conditions: Homo sapiens;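 note: cells exposed to compound for 48 hours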
[45] = HEK293 Cytotoxicity Assay Measured in Cell-Based System Using Plate Reader - 7071-01_Inhibitor_Dose_CherryPick_Activity_Set2.; assay type: functional
[46] = test system: INS1; experiment: beta cell apoptosis inhibitors, cytokine rescue, dose response, luminescence, retest (AID 449756); assay type: functional, cell-based; conditions: Rattus norvegicus;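 note: cell death triggered by IL-1 beta plus TNF-alpha plus IFN-gamma mixture; protective hits raise ATP signal compared with cytokine alone wells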
[47] = Shn3 3'UTR reporter inhibitors, dose response, cell-based, Clone20 osteoblasts, firefly luciferase, cherry-picked (AID 624132); assay type: functional;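 note: firefly luciferase luminescence from reporter carrying the Shn3 3'UTR in osteoblasts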
[48] = HepG2 cell cytotoxicity, dose response, cytotoxicity control for Shn3 inhibitor project, CellTiter-Glo, cherry-picked (AID 624134); assay type: functional, cell-based
[49] = control 3'UTR Renilla luciferase suppression, dose response, counter-screen for Shn3 inhibitor project, cell-based, Clone20-Shn3RL, cherry-picked (AID 624133); assay type: functional
[50] = reduction of Shn3 3'UTR firefly luciferase signal, dose response, Schnurri-3 inhibitor project, cell-based, Clone20 osteoblasts, cherry-pick, set 2 (AID 720490); assay type: functional;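 note: actives lower the luminescence signal as inhibitors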
[51] = inhibitors of control Renilla luciferase reporter, dose response, counter-screen for Shn3 3'UTR targeting project, Clone20-Shn3RL cells, dual-Glo, cherry-pick, set 2 (AID 720724); assay type: functional, cell-based; conditions: Dual-Go Shn3RL
[52] = target: Cytochrome P450 3A4 (Homo sapiens, UniProt P08684);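 note: CYP3A4 tested as one member of a cytochrome P450 panel screen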
Cytochrome P450 3A4, sequence (P08684 whole entry): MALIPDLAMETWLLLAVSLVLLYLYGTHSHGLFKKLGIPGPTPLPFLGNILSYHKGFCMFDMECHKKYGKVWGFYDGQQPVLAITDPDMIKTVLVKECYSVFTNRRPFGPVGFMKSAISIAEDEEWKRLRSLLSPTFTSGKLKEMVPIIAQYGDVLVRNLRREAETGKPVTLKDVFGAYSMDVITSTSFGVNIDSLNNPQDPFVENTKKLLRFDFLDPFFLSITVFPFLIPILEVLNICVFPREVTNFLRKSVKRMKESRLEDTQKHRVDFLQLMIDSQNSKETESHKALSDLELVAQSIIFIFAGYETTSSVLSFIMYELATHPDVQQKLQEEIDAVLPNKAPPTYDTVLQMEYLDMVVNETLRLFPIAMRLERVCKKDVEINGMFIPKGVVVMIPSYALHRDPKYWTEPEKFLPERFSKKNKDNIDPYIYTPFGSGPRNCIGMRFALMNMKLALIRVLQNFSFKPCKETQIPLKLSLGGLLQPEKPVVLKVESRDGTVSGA

Paired box protein Pax-8, sequence (Q06710 whole entry): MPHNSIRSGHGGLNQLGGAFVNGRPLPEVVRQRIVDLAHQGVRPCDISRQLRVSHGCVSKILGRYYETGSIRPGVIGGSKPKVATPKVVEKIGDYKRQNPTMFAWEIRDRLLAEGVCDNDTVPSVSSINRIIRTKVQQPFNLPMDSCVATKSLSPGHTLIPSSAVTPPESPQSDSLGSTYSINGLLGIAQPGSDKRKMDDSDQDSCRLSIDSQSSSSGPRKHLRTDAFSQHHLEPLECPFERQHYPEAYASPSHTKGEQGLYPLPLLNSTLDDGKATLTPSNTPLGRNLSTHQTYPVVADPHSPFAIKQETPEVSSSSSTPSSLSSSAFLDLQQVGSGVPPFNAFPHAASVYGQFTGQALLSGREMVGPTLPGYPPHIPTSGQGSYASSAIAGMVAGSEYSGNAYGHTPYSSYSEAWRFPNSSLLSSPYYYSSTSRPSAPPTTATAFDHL
Luciferin 4-monooxygenase, sequence (P08659 whole entry): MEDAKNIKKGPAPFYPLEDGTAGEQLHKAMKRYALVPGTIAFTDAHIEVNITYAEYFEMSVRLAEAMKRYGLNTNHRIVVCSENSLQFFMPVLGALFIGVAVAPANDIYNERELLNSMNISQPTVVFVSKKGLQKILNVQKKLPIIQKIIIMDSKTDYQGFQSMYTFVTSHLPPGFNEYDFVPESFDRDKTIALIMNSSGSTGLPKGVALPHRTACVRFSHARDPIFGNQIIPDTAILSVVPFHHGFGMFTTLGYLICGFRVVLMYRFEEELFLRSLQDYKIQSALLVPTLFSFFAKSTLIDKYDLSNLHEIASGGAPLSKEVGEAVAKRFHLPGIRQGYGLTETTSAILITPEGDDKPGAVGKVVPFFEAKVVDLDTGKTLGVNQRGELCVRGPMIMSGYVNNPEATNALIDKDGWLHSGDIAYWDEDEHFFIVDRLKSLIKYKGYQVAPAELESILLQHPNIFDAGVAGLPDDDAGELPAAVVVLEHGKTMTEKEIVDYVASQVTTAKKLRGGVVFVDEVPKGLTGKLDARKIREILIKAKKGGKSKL
Galanin receptor type 3, sequence (O60755 whole entry): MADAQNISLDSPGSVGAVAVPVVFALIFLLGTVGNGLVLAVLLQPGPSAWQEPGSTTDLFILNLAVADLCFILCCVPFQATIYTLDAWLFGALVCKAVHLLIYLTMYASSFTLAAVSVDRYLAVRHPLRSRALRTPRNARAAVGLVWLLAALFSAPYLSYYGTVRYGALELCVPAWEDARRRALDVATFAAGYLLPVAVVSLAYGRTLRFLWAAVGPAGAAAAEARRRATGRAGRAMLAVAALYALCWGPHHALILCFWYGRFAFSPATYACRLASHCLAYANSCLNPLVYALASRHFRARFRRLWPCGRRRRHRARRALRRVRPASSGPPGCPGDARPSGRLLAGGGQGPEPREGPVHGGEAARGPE
Kallikrein-7, sequence (P49862 whole entry): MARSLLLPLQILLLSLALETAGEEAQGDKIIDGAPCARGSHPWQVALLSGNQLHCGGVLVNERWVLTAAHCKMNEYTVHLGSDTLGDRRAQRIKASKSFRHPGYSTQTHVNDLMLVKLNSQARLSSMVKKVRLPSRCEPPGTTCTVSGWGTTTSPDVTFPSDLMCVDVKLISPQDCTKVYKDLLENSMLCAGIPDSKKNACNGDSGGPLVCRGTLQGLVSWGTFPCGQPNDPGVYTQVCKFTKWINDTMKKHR

Structure (SMILES): Nc1nc(Nc2ccccc2)nc2ccccc12
- EC50 [1]: 1.25 µM (active)
- EC50 [2]: 2.06 µM (active)
- AC50 [3]: 4.92 µM (active)
- IC50 [4]: > 29.9 µM (inactive)
- EC50 [5]: 160 nM (active)
- IC50 [6]: 444 nM (active)
- EC50 [7]: > 29.9 µM (inactive)
- AC50 [8]: 26 µM (active)

Structure (SMILES): COc1ccc(N/C=C2\C(=O)OC(=O)c3ccccc32)cc1
- IC50 [9]: > 100 µM (inactive)
- IC50 [10]: > 100 µM (inactive)

Structure (SMILES): Cc1ccc(CC(=O)NO)cc1
- IC50 [11]: 16.3 µM (inactive)

Structure (SMILES): Cc1cccc(-c2ccc([C@H]3[C@H](CO)N4CCCCN(Cc5ccncc5)C[C@@H]34)cc2)c1
- AC50 [12]: 8.54 µM (active)

Structure (SMILES): N#C[C@H]1[C@@H](c2ccccc2C2=CCCCC2)[C@@H](CO)N1S(=O)(=O)c1ccccc1
- AC50 [13]: > 47 µM (inactive)

Structure (SMILES): CC(c1ccc(Cl)cc1)N(C)C[C@@H]1CN(C(C)C)C(=O)c2cccc(NC(=O)c3ccncc3)c2O1 (some centres not stated)
- AC50 [14]: 54.8 nM (active)

Structure (SMILES): CN1CCN(C2=C(NS(=O)(=O)c3ccc(Br)cc3)C(=O)c3ccccc3C2=O)CC1
- AC50 [15]: > 70 µM (inactive)
- AC50 [16]: > 70 µM (inactive)

Structure (SMILES): N#C/C(=C\c1ccco1)C(=O)Nc1cccc2ncccc12
- AC50 [17]: > 52 µM (inactive)

Structure (SMILES): Cc1noc(C)c1S(=O)(=O)Nc1cccc2c1O[C@H](CN(C)Cc1ccc(C(F)(F)F)cc1)[C@H](C)CN([C@@H](C)CO)C2=O
- AC50 [18]: 10.6 µM (active)
- AC50 [19]: > 70 µM (inactive)

Structure (SMILES): COc1ccc(-c2cc(C(F)(F)F)nc(S(=O)(=O)CCCC(=O)Nc3cc(C)on3)n2)cc1OC
- EC50 [20]: > 350 µM (not active)
- EC50 [21]: > 350 µM (not active)
- AC50 [22]: 13.7 µM (active)
- AC50 [23]: 9.94 µM (active)
- AC50 [24]: 21.2 µM (active)
- AC50 [25]: 29.4 µM (active)
- AC50 [26]: 20.7 µM (active)
- AC50 [27]: 13.4 µM (active)
- AC50 [28]: 27.7 µM (active)
- AC50 [29]: 15.2 µM (active)
- AC50 [30]: 30.1 µM (active)
- AC50 [31]: 23.1 µM (active)
- AC50 [32]: 16.2 µM (active)

Structure (SMILES): Cc1cc(CSc2ccccc2)ccc1NC(=O)c1ccc(CN2CCOCC2)cc1
- IC50 [33]: > 80 µM (inactive)
- IC50 [34]: > 80 µM (inactive)
- AC50 [35]: 2.17 µM (active)
- IC50 [36]: 322 nM (active)
- EC50 [37]: > 29.9 µM (inactive)
- AC50 [38]: 7.59 µM (active)
- AC50 [39]: 1.75 µM (active)
- AC50 [40]: 5.87 µM (active)

- EC50 [41]: > 69.5 µM (inactive)
Structure (SMILES): COc1ccc(-c2cc(-c3ccccc3)n3ncnc3n2)cc1
- EC50 [42]: > 7.72 µM (active)

Structure (SMILES): COc1ccccc1C(=O)Nc1ccc2c(c1)C(=O)N(C)C[C@H](OC)[C@@H](C)CN(CC1CC1)[C@@H](C)CO2
- AC50 [43]: > 52 µM (inactive)
- AC50 [44]: 24.1 µM (active)
- AC50 [45]: 24.1 µM (active)

Structure (SMILES): Cc1ccc(-c2csc(N3CCC(NS(=O)(=O)c4ccc5c(c4)OCCO5)CC3)n2)cc1
- AC50 [46]: 5.51 µM (active)
- AC50 [47]: 2.15 µM (active)
- AC50 [48]: > 70 µM (inactive)
- AC50 [49]: 15 µM (active)
- AC50 [50]: 3.03 µM (active)
- AC50 [51]: 21.6 µM (active)
- AC50 [52]: inconclusive
